Legend:
hERG = hERG (Homo sapiens, UniProt Q12809); assay: hERG cardiotoxicity assay (patch clamp, hERG stably expressed HEK 293 cell line); format: cell-based; settings: 5 doses applied cumulatively
Method: • 1) The hERG stably expressed HEK 293 cell line (Cat# K1236) was purchased from Invitrogen. Cells were cultured in a medium consisting of 85% DMEM, 10% FBS, 0.1 mM NEAA, 25 mM HEPES, 100 U/mL penicillin-streptomycin, 5 µg/mL Blasticidin, and 400 µg/mL Geneticin. Cells were passaged approximately three times a week using TrypLE™ Express and maintained at ~40% to ~80% confluency. Before assay, cells were placed on coverslips with 5×10^5 cells per 6-cm cell culture dish and induced with 1 µg/mL doxycycline for 48 hours. • 2) The coverslip was removed from the cell culture dish and placed on the microscope stage. A suitable cell was located using a 10× objective. The tip of the electrode was located under the microscope using the 10× objective, and the focus was adjusted to the plane of the cell. Once the tip was in focus, the coarse control of the manipulator was used to advance the electrode downward toward the cell while moving the objective to keep the tip in focus. When directly above the cell, the objective was switched to 40× objective, and the fine control of the manipulator was used to approach the cell surface in small steps. • 3) A blank control was first performed to establish a baseline. […] In the presence of the test compounds, the hERG current was recorded for approximately 5 minutes to reach a steady state, followed by capturing 5 scans. For dose-response testing, 5 doses of the test compounds were cumulatively applied to the cells from low to high concentrations. The positive control, dofetilide at a concentration of 150 nM, was applied to each cell, and the hERG current was measured in the test compounds at the highest concentration as a negative control to normalize the percentage of inhibition. To ensure good performance of the cultured cells and operations, cells from the same batch were also tested with 5 doses of dofetilide. Table 4. hERG Toxicity Assay Results

MDA-MB-436 = assay: Cell activity assay (CellTiterGlo, 6 days), BRCA1 gene-deficient MDA-MB-436 cells; format: cell-based; settings: Homo sapiens, 144 h, BRCA1 gene-deficient MDA-MB-436, 6 days incubation
Method: (§1) • (1) Compound Treatment • a) Preparation of Stock Solutions of Compounds Test compounds were dissolved in DMSO at a concentration of 10 mM or 5 mM, and Olaparib was dissolved in DMSO at a concentration of 10 mM. • b) Compound Storage All compounds dissolved in DMSO were stored in a desiccator at room temperature for short-term storage and transferred to a -20°C refrigerator for long-term storage. • c) Preparation of Working Concentrations of Compounds
(§2) Test compounds were serially diluted in DMSO at a 3-fold gradient to prepare 10 concentration gradients, starting from 10 µM.
(§3) Olaparib was serially diluted in DMSO at a 3-fold gradient to prepare 10 concentration gradients, starting from 10 µM.
(§4) The 384-well plate loaded with the compounds was centrifuged at 1000 rpm for 1 minute.
(§5) • a) Cells were added to the culture medium and incubated in a cell culture incubator at 37°C with 5% CO2. • b) 40 µL of BRCA1- or BRCA2-deficient cells were added to a 384-well plate and incubated overnight at 37°C with 5% CO2. • c) The test compounds were prepared at different concentration gradients on the master plate, and 80 nL of the test compounds and Olaparib were taken from the master plate and added to the 384-well plate containing cells, and incubated at 37°C with 5% CO2 for 6 days. • d) CellTiterGlo (30 µL per well) was added to the 384-well plate, and after incubation at room temperature in the dark for 30 minutes, measurement was performed using an Envision plate reader.
(§6) • a) GraphPad Prism software was used to calculate the ICso and plot the activity curves as a function of concentration. • b) The inhibition of cell activity by the compounds was calculated using the following formula: % Inhibition = [1−(Cmpd−Blank)/(DMSO−Blank)]* 100 [formula]

solid tumors = settings: NCT02719977, solid tumors in humans; cited from earlier work
UWB1.289 Cells = assay: Cell activity assay (CellTiterGlo, 6 days), BRCA1 gene-deficient ovarian cancer cells UWB1.289; format: cell-based; settings: UWB1289, 144 h, BRCA1 gene-deficient ovarian cancer cells UWB1.289, 6 days incubation
Method: as §1, §2, §3, §4, §5, §6

DLD1 BRCA2^-/- = assay: Cell activity assay (CellTiterGlo, 6 days), BRCA2 gene knockout DLD1 cancer cells; format: cell-based; settings: Homo sapiens, DLD-1, 144 h, 6 days incubation
Method: as §1, §2, §3, §4, §5, §6

Chain of hERG (Q12809 whole entry): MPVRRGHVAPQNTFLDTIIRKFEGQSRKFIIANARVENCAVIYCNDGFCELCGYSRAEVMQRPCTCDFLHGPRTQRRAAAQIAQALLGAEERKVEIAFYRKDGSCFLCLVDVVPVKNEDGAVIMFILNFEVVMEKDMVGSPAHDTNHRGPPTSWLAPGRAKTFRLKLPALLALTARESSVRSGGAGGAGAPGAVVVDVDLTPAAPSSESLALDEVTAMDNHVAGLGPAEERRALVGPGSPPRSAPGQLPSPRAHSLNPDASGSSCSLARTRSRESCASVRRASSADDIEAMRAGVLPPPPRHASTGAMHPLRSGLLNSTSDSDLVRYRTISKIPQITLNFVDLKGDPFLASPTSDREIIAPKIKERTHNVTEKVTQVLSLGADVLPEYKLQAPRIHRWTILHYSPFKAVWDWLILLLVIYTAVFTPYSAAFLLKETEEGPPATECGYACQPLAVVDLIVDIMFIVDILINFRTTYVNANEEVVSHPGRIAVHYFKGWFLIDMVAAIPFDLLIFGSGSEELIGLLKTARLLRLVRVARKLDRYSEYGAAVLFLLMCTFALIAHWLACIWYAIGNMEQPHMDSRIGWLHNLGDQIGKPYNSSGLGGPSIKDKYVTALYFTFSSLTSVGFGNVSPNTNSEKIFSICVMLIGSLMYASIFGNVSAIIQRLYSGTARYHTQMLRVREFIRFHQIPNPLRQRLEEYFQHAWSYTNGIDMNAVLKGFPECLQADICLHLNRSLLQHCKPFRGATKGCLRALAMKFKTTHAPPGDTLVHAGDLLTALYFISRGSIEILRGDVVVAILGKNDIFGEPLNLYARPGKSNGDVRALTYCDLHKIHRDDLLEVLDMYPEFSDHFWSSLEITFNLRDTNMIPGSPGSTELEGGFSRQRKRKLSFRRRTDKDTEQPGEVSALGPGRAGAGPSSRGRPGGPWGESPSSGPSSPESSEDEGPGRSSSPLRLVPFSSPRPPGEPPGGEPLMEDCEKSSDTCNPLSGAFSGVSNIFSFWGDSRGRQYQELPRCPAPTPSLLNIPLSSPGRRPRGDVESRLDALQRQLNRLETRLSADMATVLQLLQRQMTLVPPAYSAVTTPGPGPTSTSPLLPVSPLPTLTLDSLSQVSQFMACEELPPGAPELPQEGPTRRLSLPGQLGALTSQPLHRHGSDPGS

Row | Compound | IC50 (hERG) | IC50 (MDA-MB-436) | adverse effects observed (solid tumors) | IC50 (UWB1.289 Cells) | IC50 (DLD1 BRCA2^-/-)
1 | Cc1cnc(CNC(=O)c2c(=O)c3ccc(N4CCCN(C)CC4)nc3n3c2sc2ccccc23)cn1 [CX-5461] | 5060 nM | 10 nM | phototoxicity, neutropenia, acral erythema, and nausea |  | 
2 | CN1CCCN(c2ccc3c(=O)c(C(=O)NCCN4CCC4)c4sc5ccccc5n4c3n2)CC1 [Compound C] |  |  |  | 4.9 nM | 4.8 nM
3 | CN1CCCN(c2ccc3c(=O)c(C(=O)NCCN4CCCC4)c4sc5ccccc5n4c3n2)CC1 [Compound D] |  |  |  | 5.8 nM | 4.3 nM
4 | CNC(=O)c1c(=O)c2ccc(N3CCCN(C)CC3)nc2n2c1sc1ccccc12 [Compound E] |  | 7.7 nM |  | 39.8 nM | 11 nM
5 | CN1CCCN(c2ccc3c(=O)c(C(=O)NC4CC4)c4sc5ccccc5n4c3n2)CC1 [Compound F] |  |  |  | 40.6 nM | 17.2 nM
6 | CN1CCCN(c2ccc3c(=O)c(C(=O)NCc4ccc(=O)[nH]n4)c4sc5ccccc5n4c3n2)CC1 [Compound G-1] | > 30000 nM |  |  | 40.4 nM | 32.7 nM
7 | CN1CCCN(c2ccc3c(=O)c(C(=O)NCc4n[nH]c(=O)c5ccccc45)c4sc5ccccc5n4c3n2)CC1 [Compound G-2] | > 10000 nM |  |  |  | 
8 | O=C(c1cc(Cc2n[nH]c(=O)c3ccccc23)ccc1F)N1CCN(C(=O)C2CC2)CC1 [Olaparib, reference compound] |  | 240 nM |  | 716 nM | 

Reference: patent EP4703365A1, “QUINOLONE DERIVATIVE AND USE THEREOF AGAINST TUMORS” (Horizon Omics Biotech Limited, priority 2023, dated 2024)
